Experimental data taken from PubChem BioAssay AID1919005 (Molecular Pharmacology Branch, DTP, NCI, 2023).

System: 855422-203-R-J1-PDC complex spheroid growth
Assay: Anticancer human tumor 855422-203-R-J1-PDC patient-derived bladder carcinoma cell line growth inhibition [AhR]
Conditions: for IC50: curve of first compound; for viability, T/C: stronger effect = lower value
Procedure, shortened: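 Agents were dosed in half-log steps down from roughly clinical Cmax, or from 10 microM where Cmax was unknown, alone and with AhR antagonists. Read-out: percent test/control growth of tumor spheroids containing HUVEC and MSC stromal cells.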

[1] = second compound 0.1 µM, first compound 0.0316 µM
[2] = second compound 0.1 µM, first compound 0.1 µM
[3] = second compound 0.1 µM, first compound 0.316 µM
[4] = second compound 0.1 µM, first compound 1 µM
[5] = second compound 0.1 µM, first compound 3.16 µM
[6] = second compound 0.1 µM, first compound 10 µM
[7] = second compound 0.316 µM, first compound 0.0316 µM
[8] = second compound 0.316 µM, first compound 0.1 µM
[9] = second compound 0.316 µM, first compound 0.316 µM
[10] = second compound 0.316 µM, first compound 1 µM
[11] = second compound 0.316 µM, first compound 3.16 µM
[12] = second compound 0.316 µM, first compound 10 µM
[13] = second compound 1 µM, first compound 0.0316 µM
[14] = second compound 1 µM, first compound 0.1 µM
[15] = second compound 1 µM, first compound 0.316 µM
[16] = second compound 1 µM, first compound 1 µM
[17] = second compound 1 µM, first compound 3.16 µM
[18] = second compound 1 µM, first compound 10 µM
[19] = second compound 3.16 µM, first compound 0.0316 µM
[20] = second compound 3.16 µM, first compound 0.1 µM
[21] = second compound 3.16 µM, first compound 0.316 µM
[22] = second compound 3.16 µM, first compound 1 µM
[23] = second compound 3.16 µM, first compound 3.16 µM
[24] = second compound 3.16 µM, first compound 10 µM
[25] = second compound 10 µM, first compound 0.0316 µM
[26] = second compound 10 µM, first compound 0.1 µM
[27] = second compound 10 µM, first compound 0.316 µM
[28] = second compound 10 µM, first compound 1 µM
[29] = second compound 10 µM, first compound 3.16 µM
[30] = second compound 10 µM, first compound 10 µM
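Further: spheroids exposed to agents for seven days before readout.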
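Wherever viability, T/C is given: percent of DMSO vehicle control luminescence viability.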

Row | Structure (SMILES) | IC50 (second compound 0.1 µM) | IC50 (second compound 0.316 µM) | IC50 (second compound 1 µM) | IC50 (second compound 3.16 µM) | IC50 (second compound 10 µM) | viability, T/C [1] | viability, T/C [2] | viability, T/C [3] | viability, T/C [4] | viability, T/C [5] | viability, T/C [6] | viability, T/C [7] | viability, T/C [8] | viability, T/C [9] | viability, T/C [10] | viability, T/C [11] | viability, T/C [12] | viability, T/C [13] | viability, T/C [14] | viability, T/C [15] | other results
1 | COc1cc(C2c3cc4c(cc3C(OC3OC5COC(C)OC5C(O)C3O)C3COC(=O)C23)OCO4)cc(OC)c1O (stereo not given) + Cc1cncc(-c2nc(NCCc3c[nH]c4ccccc34)c3ncn(C(C)C)c3n2)c1 | 372 nM | 207 nM | 207 nM | 173 nM | < 31.6 nM | 85.9% | 85.5% | 55.4% | 14.8% | 9.41% | 3.49% | 88.4% | 83.7% | 30.2% | 15% | 8.46% | 3.99% | 83.8% | 79.7% | 32.5% | viability, T/C [16]: 14.4%; viability, T/C [17]: 8.33%; viability, T/C [18]: 6.08%; viability, T/C [19]: 76.8%; viability, T/C [20]: 73.7%; viability, T/C [21]: 24.4%; viability, T/C [22]: 13.2%; viability, T/C [23]: 6.72%; viability, T/C [24]: 4.03%; viability, T/C [25]: 9.82%; viability, T/C [26]: 11.7%; viability, T/C [27]: 1.25%; viability, T/C [28]: 0.55%; viability, T/C [29]: 1.09%; viability, T/C [30]: 2.98%
2 | COc1ccc([C@@H](O)c2cc(-c3ncnc4cc(N5CCOCC5)ccc34)c(F)cc2Cl)nn1 + CC(CO)NC(=O)c1cc(-c2ccc(Cl)cc2)nn(-c2cnn(C)c2)c1=O | > 10000 nM | > 10000 nM | > 10000 nM | > 10000 nM | > 10000 nM | 94.1% | 85.3% | 84.8% | 86.3% | 74.7% | 58.4% | 96.4% | 96.6% | 86% | 74.5% | 74.6% | 54.6% | 85.3% | 90.6% | 92.3% | viability, T/C [16]: 86.9%; viability, T/C [17]: 72.7%; viability, T/C [18]: 55.4%; viability, T/C [19]: 91.5%; viability, T/C [20]: 88.5%; viability, T/C [21]: 98.9%; viability, T/C [22]: 78.5%; viability, T/C [23]: 69.6%; viability, T/C [24]: 54%; viability, T/C [25]: 93.5%; viability, T/C [26]: 103%; viability, T/C [27]: 82%; viability, T/C [28]: 84.2%; viability, T/C [29]: 71%; viability, T/C [30]: 54.4%
3 | CC1(C)CCC(CN2CCN(c3ccc(C(=O)NS(=O)(=O)c4ccc(NCC5CCOCC5)c([N+](=O)[O-])c4)c(Oc4cnc5[nH]ccc5c4)c3)CC2)=C(c2ccc(Cl)cc2)C1 + Cc1cncc(-c2nc(NCCc3c[nH]c4ccccc34)c3ncn(C(C)C)c3n2)c1 | 6140 nM | 5810 nM | 5450 nM | 4530 nM | < 31.6 nM | 93.9% | 92.2% | 98.1% | 117% | 108% | 11.9% | 94.2% | 91.1% | 85.8% | 90.3% | 98.2% | 12.6% | 83% | 96.7% | 83.7% | viability, T/C [16]: 76.7%; viability, T/C [17]: 84.8%; viability, T/C [18]: 11.3%; viability, T/C [19]: 76.2%; viability, T/C [20]: 80.7%; viability, T/C [21]: 77.7%; viability, T/C [22]: 60.8%; viability, T/C [23]: 69.5%; viability, T/C [24]: 13.8%; viability, T/C [25]: 38%; viability, T/C [26]: 30.6%; viability, T/C [27]: 22.1%; viability, T/C [28]: 14.7%; viability, T/C [29]: 24.5%; viability, T/C [30]: 10.5%
4 | O=C(C=Cc1cccc(S(=O)(=O)Nc2ccccc2)c1)NO + CC(CO)NC(=O)c1cc(-c2ccc(Cl)cc2)nn(-c2cnn(C)c2)c1=O | 2150 nM | 1970 nM | 2030 nM | 1540 nM | 1730 nM | 87.4% | 88.6% | 91.1% | 71.7% | 38.5% | 1.42% | 89.1% | 88.2% | 92.7% | 70.6% | 34.7% | 0.82% | 93.7% | 87.8% | 86.6% | viability, T/C [16]: 79.8%; viability, T/C [17]: 31.7%; viability, T/C [18]: 0.88%; viability, T/C [19]: 83.2%; viability, T/C [20]: 86.8%; viability, T/C [21]: 90.7%; viability, T/C [22]: 60.3%; viability, T/C [23]: 27.9%; viability, T/C [24]: 0.71%; viability, T/C [25]: 87.2%; viability, T/C [26]: 90.3%; viability, T/C [27]: 79.4%; viability, T/C [28]: 67.3%; viability, T/C [29]: 31.8%; viability, T/C [30]: 0.94%
5 | Nc1ccn(C2OC(CO)C(O)C2(F)F)c(=O)n1 (stereo not given) + Cc1ccccc1N=Nc1ccc(NC(=O)c2ccnn2C)c(C)c1 | 265 nM | 293 nM | 248 nM | 167 nM | 73.1 nM | 120% | 96.4% | 40.4% | 29.2% | 25.9% | 16.5% | 113% | 89.3% | 46.5% | 28.2% | 23.4% | 20.7% | 109% | 84.5% | 39.2% | viability, T/C [16]: 30.1%; viability, T/C [17]: 23.8%; viability, T/C [18]: 19.1%; viability, T/C [19]: 84.5%; viability, T/C [20]: 63.3%; viability, T/C [21]: 31.9%; viability, T/C [22]: 29.6%; viability, T/C [23]: 22.3%; viability, T/C [24]: 17.1%; viability, T/C [25]: 64%; viability, T/C [26]: 45.8%; viability, T/C [27]: 29.6%; viability, T/C [28]: 27.7%; viability, T/C [29]: 22.1%; viability, T/C [30]: 18%
